{"source": "patent US20160237450A1", "about": "“METHOD FOR ENHANCING DROUGHT TOLERANCE IN PLANTS” (Plant Response Biotech S.L., priority 2015, published 2016)", "assay_type_in_all_cases": "in vivo", "key": {"[1]": {"system": "sunflower plants", "assay": "Sunflower field chlorophyll content and seed production after seed treatment", "conditions": "seed treatment 1 g/l/Kg, natural stress", "procedure": "In order to determine the drought or drought stress tolerance after seed treatments with TMAO di-hydrate and germination in the presence of TMAO di-hydrate, barley “Hispanic” seeds, corn “FAO700” seeds, and “Sambro” sunflower seeds were surface sterilized for 3 minutes in ethanol 70%, then rinsed twice and finally included in a pre-treatment solution of 1 g/L TMAO di-hydrate solution (or just water) under shaking for 3 hours at a dose of 1 litre per Kg of seeds. Then, the seeds were sown in randomized plots of 10 sqm in a surface of 2.000 sqm. Chlorophyll content was measured 1 month before harvest. In corn irrigation was applied in half of the plots while the other half only received an initial establishment watering. The barley plots received 200 l of rain per m^2 through the growing season. Some of the plots received a second spray treatment with 1 g/liter of TMAO. […] At least 3 independent plants were treated per experiment.\nTMAO di-hydrate applied exogenously which increases the endogenous content of TMAO as if the plants were overexpressing an FMO protein at least 4 times increases plant production in sunflower plants grown in the field without external irrigation. ‘Sambra” sunflower seeds were sown, grown and treated as described above. Seed treatment (1 g/l/Kg TMAO) increased plant chlorophyll content and seed production. […] Both chlorophyll and weight differences between control and TMAO groups are statistically significant. Relative chlorophyll content values are obtained by optical absorbance in two different wavebands: 653 nm (chlorophyll) and 931 nm (Near Infra-Red)."}, "[2]": {"system": "garlic plants", "assay": "Yield production without drought stress, garlic", "conditions": "1 g/l spray every 4 weeks for 3 months, no drought stress", "procedure": "Root or leaves yield was determined in the plants treated with 1 g/l of TMAO di-hydrate or water as described above in order to evaluate the trade-off costs of the treatment with no drought stress."}, "[3]": {"system": "barley plants ('Bomi')", "assay": "Barley dry weight under drought", "procedure": "(§1) For each drought or limited water experiment 480 seeds (of either pepper, barley, tomato, cucumber or corn) were sown, producing 384 plants in 512 cm^3 pots (4 plants per pot). Plants were grown under chamber conditions at 21° C. for 3 weeks. Then, the plants were moved to a greenhouse, where average temperature was 25° C. to 28° C. Spray and irrigation treatments as described herein were done when the plants had two extended leaves and the next pair of leaves were coming up.\n(§2) Treatments: Twelve pots (containing 48 plants) were irrigated with 40 ml of either: water, 0.1 g/L TMAO di-hydrate solution, 1.0 g/L TMAO di-hydrate solution, or 5.5 g/L TMAO di-hydrate solution. Another set of 12 pots containing 48 plants were sprayed with 40 ml of either water (3.3 ml in average per pot), a solution containing 0.1 g/L TMAO di-hydrate solution, 1.0 g/L TMAO di-hydrate, or 5 g/L, or 10 g/L TMAO di-hydrate. Further sets of 12 pots containing 48 plants were both sprayed with each initial solution TMAO di-hydrate solution and further irrigated with the same TMAO di-hydrate solutions used in the control water sprayed plants. All pots were also watered with 40 ml of water. The sprayed plants were watered with the same volume of water as the “irrigated plants). The pots were located on plastic glass to maintain constant moisture and to avoid liquid spillage during watering. Trays containing the pots were located on greenhouse tables. The distribution of the trays on the table and the position on the pots in the tray was changed every week to avoid position effects.\nAfter the treatments described above, the plants were not watered until the pots completely lost their moisture, taking about 4 to 8 days depending on the season, at which point the plants were extremely wilted for the extreme drought experiments. […] For the “extreme drought” experiments plants were allowed to wilt severely before watering and then the plant survival rate was recorded and analyzed. […]"}, "[4]": {"system": "tomato plants ('Moneymaker')", "assay": "Tomato plant survival under extreme drought", "procedure": "as §1, §2\nAfter the treatments described above, the plants were not watered until the pots completely lost their moisture, taking about 4 to 8 days depending on the season, at which point the plants were extremely wilted for the extreme drought experiments. The plants were then watered once with solutions containing the different amounts of TMAO di-hydrate (0.1 g/L, 1.0 g/L, 5 g/L, or 10 g/L) or just water, after which the plants were left to lose their moisture completely again for three consecutive cycles of watering after wilting. For the “extreme drought” experiments plants were allowed to wilt severely before watering and then the plant survival rate was recorded and analyzed.\nTMAO di-hydrate applied exogenously, which increases the endogenous content of TMAO as if the plants were overexpressing an FMO protein at least 4 times, increases tomato plant survival under extreme drought conditions, where plants were allowed to fully wilt after three water-wilt cycles. Moneymaker tomato seeds were sown, grown and treated as described above. No statistical differences between modes of application (sprayed or TMAO di-hydrate watered) were observed on this experiment."}, "[5]": {"system": "broccoli plants (Parthenon)", "assay": "Broccoli inflorescence fresh weight with constant TMAO irrigation", "conditions": "100% water; constant irrigation with 1 g/L", "from_the_text": "TMAO di-hydrate applied exogenously which increases the endogenous content of TMAO as if the plants were overexpressing an FMO protein at least 4 times increases plant production in broccoli. Parthenon broccoli seeds were sown, grown and treated as described above. Constant irrigation with 1 g/L TMAO di-hydrate increased plant inflorescence production."}, "[6]": {"system": "tomato plants ('Rio Grande')", "assay": "Tomato fruit production under limited water irrigation", "conditions": "30% water irrigation; 1 g/L spray every 4 weeks", "from_the_text": "TMAO di-hydrate applied exogenously which increases the endogenous content of TMAO as if the plants were overexpressing an FMO protein at least 4 times increases plant production in tomato under limited water irrigation. ‘Rio Grande’ tomato seeds were sown, grown and treated as described. Spray treatments with 1 g/L TMAO di-hydrate increased both fruit size and fruit production."}}}
{"smiles": "C[N+](C)(C)[O-].O.O", "note": "[TMAO di-hydrate, trimethylamine N-oxide di-hydrate]", "values": [{"measurement": "% GAIN/LOSS RESPECT TO THE CONTROL, chlorophyll content", "setting": "[1]", "result": 30, "unit": "%"}, {"measurement": "% GAIN/LOSS RESPECT TO THE CONTROL, weight of seeds from 1 plant", "setting": "[1]", "result": 77.7, "unit": "%"}, {"measurement": "C[…] (OD663/OD931, AVERAGE VALUE)", "setting": "[1]", "result": "21.17 ± 0.54"}, {"measurement": "WEIGHT (GRAMS) OF SEEDS FROM 1 PLANT, AVERAGE VALUE", "setting": "[1]", "result": "161.3 ± 13.1", "unit": "GRAMS"}, {"measurement": "Yield production, % Control", "setting": "[2]", "result": 109, "unit": "%"}, {"measurement": "AVERAGE DRY weight ± S.E.", "setting": "[3]; initial treatment 1 g/L sprayed, irrigations water, three cycles of wilt-watering", "result": "1205.4 ± 60.37", "unit": "mg"}, {"measurement": "AVERAGE DRY weight ± S.E.", "setting": "[3]; initial treatment 1 g/L watered, irrigations water, three cycles of wilt-watering", "result": "1371.4 ± 66.13", "unit": "mg"}, {"measurement": "AVERAGE DRY weight ± S.E.", "setting": "[3]; no initial treatment, irrigations 1 g/L", "result": "1216.1 ± 33.44", "unit": "mg"}, {"measurement": "appearance of treated plants compared to untreated control", "setting": "[4]; irrigated with 5.5 g/L, 24 hours after drought recovery (FIG. 9)", "result": "extremely healthy"}, {"measurement": "SURVIVAL RATE (%)", "setting": "[4]; irrigation 0.1 g/L, initial spray 0.1 g/L", "result": "12.5 ± 8.5", "unit": "%"}, {"measurement": "SURVIVAL RATE (%)", "setting": "[4]; irrigation 0.1 g/L, initial spray 1 g/L", "result": "41.6 ± 8.5", "unit": "%"}, {"measurement": "SURVIVAL RATE (%)", "setting": "[4]; irrigation 0.1 g/L, initial spray 5 g/L", "result": "68.9 ± 8.5", "unit": "%"}, {"measurement": "SURVIVAL RATE (%)", "setting": "[4]; irrigation 0.1 g/L, initial spray water", "result": "16.6 ± 8.5", "unit": "%"}, {"measurement": "SURVIVAL RATE (%)", "setting": "[4]; irrigation 1 g/L, initial spray 0.1 g/L", "result": "0.0 ± 7.5", "unit": "%"}, {"measurement": "SURVIVAL RATE (%)", "setting": "[4]; irrigation 1 g/L, initial spray 1 g/L", "result": "29.1 ± 7.5", "unit": "%"}, {"measurement": "SURVIVAL RATE (%)", "setting": "[4]; irrigation 1 g/L, initial spray 5 g/L", "result": "33.3 ± 7.5", "unit": "%"}, {"measurement": "SURVIVAL RATE (%)", "setting": "[4]; irrigation 1 g/L, initial spray water", "result": "4.1 ± 7.5", "unit": "%"}, {"measurement": "SURVIVAL RATE (%)", "setting": "[4]; irrigation 5 g/L, initial spray 0.1 g/L", "result": "12.5 ± 8.0", "unit": "%"}, {"measurement": "SURVIVAL RATE (%)", "setting": "[4]; irrigation 5 g/L, initial spray 1 g/L", "result": "16.6 ± 8.0", "unit": "%"}, {"measurement": "SURVIVAL RATE (%)", "setting": "[4]; irrigation 5 g/L, initial spray 5 g/L", "result": "50.0 ± 8.0", "unit": "%"}, {"measurement": "SURVIVAL RATE (%)", "setting": "[4]; irrigation 5 g/L, initial spray water", "result": "8.3 ± 8.0", "unit": "%"}, {"measurement": "SURVIVAL RATE (%)", "setting": "[4]; irrigation all regimes, initial spray 0.1 g/L", "result": "12.5 ± 4.1", "unit": "%"}, {"measurement": "SURVIVAL RATE (%)", "setting": "[4]; irrigation all regimes, initial spray 1 g/L", "result": "37.5 ± 4.1", "unit": "%"}, {"measurement": "SURVIVAL RATE (%)", "setting": "[4]; irrigation all regimes, initial spray 5 g/L", "result": "56.6 ± 4.1", "unit": "%"}, {"measurement": "SURVIVAL RATE (%)", "setting": "[4]; irrigation water, initial spray 0.1 g/L", "result": "29.1 ± 9.1", "unit": "%"}, {"measurement": "SURVIVAL RATE (%)", "setting": "[4]; irrigation water, initial spray 1 g/L", "result": "62.5 ± 9.1", "unit": "%"}, {"measurement": "SURVIVAL RATE (%)", "setting": "[4]; irrigation water, initial spray 5 g/L", "result": "74.2 ± 9.1", "unit": "%"}, {"measurement": "AVERAGE FRESH WEIGHT (GRAMS) PER INFLORESCENCE", "setting": "[5]", "result": "220.2 ± 16.6", "unit": "GRAMS"}, {"measurement": "increase of broccoli inflorescence fresh weight", "setting": "[5]", "result": 70, "unit": "%"}, {"measurement": "AVERAGE WEIGHT (grams/fruit)", "setting": "[6]", "result": "76.73 ± 17.67", "unit": "grams/fruit"}, {"measurement": "increase of fruit production over untreated plants with 30% irrigation", "setting": "[6]", "result": 45, "unit": "%"}]}
